Among the data in US20250367269A1, “KYNURENINE AMINOTRANSFERASE AND PRODUCTS THEREOF FOR THE TREATMENT OF ARTHRITIC DISEASES” (Institut National de Recherche Pour L'Agriculture, …, priority 2022, published 2025) are arthritis severity values, retold here.

The assay concerns collagen-antibody induced arthritis. In words: collagen-antibody induced arthritis model. The assay is classed as in vivo, C57BL6J male mice. To be noted: administration in collagen-antibody induced arthritis mouse model; summary statement, no details. As to the method:
C57BL6J male mice were injected intraperitoneally with a cocktail of arthritogenic anti-type II collagen (2 mg/mouse) at day 0. At day 3, mice received an injection of lipopolysaccharide from bacterial cells walls of E. coli 055: B5. The severity of arthritis was evaluated every other day on each paw with a score from 0 to 4, for a maximal score of 16 by animal (0=normal joint, 1=moderate redness and slight swelling or swelling of one or two digits, 2=moderate redness and moderate paw swelling or swelling more than three digits, 3=redness and swelling from tarsal joints to metatarsal joints, 4=severe redness and severe swelling of the entire paw). Hindpaw swelling was measured at the same time by plethysmography. Paw volume determined prior to disease induction was used as the baseline. The development of arthritis was analyzed by histological assessment. Hindpaws were dissected then fixed in 4% formalin (Labonord). Hindpaws were further decalcified in 10% EDTA for 1 month and embedded in paraffin blocks. Five μm-thick tissue sections were cut and two stainings were performed, hematoxylin, eosin and toluidine blue. Histological examination was carried out blindly by three independent observers. Synovium from ankle joint was graded on a scale of 0 to 3 (with 0=normal and 3=major changes) for synovial hyperplasia (width of lining layer) and tissue cell infiltration. […]

As to `O=C(O)c1cc(O)c2cccc(O)c2n1` [xanthurenic acid], the arthritis severity entry was “reduces arthritis severity”.
